Data reported in US20250043299A1, “POINT MUTATIONS THAT BOOST AROMATIC AMINO ACID PRODUCTION AND CO2 ASSIMILATION IN PLANTS” (Wisconsin Alumni Research Foundation, priority 2021, published 2025).
“Also recorded” adds a separate entry of the source.

Key:
DHS3^WT = settings: AAAs: from Yokoyama et al., Plant Cell, 2021; cited from earlier work
[1] = molecular target: T1, Arabidopsis thaliana DHS2 (AtDHS2), wild type (DHS2^WT), SEQ ID NO:2 (Arabidopsis thaliana, UniProt Q00218); settings: reference 9; cited from earlier work
T1 construct: without the predicted plastid transit peptide (amino acid residues; 49-525, 34-507, and 52-527, respectively); made in house; host or cells: E. coli Rosetta-2
T1 sequence (Q00218 34-507): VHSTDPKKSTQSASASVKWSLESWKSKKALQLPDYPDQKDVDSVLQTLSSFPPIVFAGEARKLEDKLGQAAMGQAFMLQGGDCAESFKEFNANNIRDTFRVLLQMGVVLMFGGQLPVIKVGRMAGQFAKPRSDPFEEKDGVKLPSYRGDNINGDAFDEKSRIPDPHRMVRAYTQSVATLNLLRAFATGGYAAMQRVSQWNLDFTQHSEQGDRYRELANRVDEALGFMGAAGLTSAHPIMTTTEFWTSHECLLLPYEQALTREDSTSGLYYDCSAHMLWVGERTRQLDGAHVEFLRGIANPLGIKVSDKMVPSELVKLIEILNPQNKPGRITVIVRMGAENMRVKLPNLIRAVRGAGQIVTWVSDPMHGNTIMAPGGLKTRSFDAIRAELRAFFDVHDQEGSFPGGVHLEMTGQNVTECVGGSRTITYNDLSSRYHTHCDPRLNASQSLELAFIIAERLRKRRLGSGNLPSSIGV

DHS2^WT [2] = molecular target: T2, DHS2^WT (Arabidopsis thaliana, UniProt Q00218); test: Differential scanning fluorimetry (DSF) protein-ligand affinity analysis, DHS2^WT; type: binding; settings: ligand at 1 mM
T2 construct: without the predicted plastid transit peptide (amino acid residues; 49-525, 34-507, and 52-527, respectively); made in house; host or cells: E. coli Rosetta-2
T2 sequence (Q00218 34-507): as above
Procedure: (§1) To examine the impact of the sota mutations on the interaction between DHS and AAA effectors (FIG. 22), a differential scanning fluorimetry (DSF) analysis (48) was conducted using the recombinant DHS2^WT and DHS2^A4 proteins. […] The fluorescence signal was monitored during the stepwise increase in temperature (1° C. per minute from 25° C. to 95° C.). The Tm was calculated by nonlinear regression analysis using the Boltzmann sigmoidal equation (48).

DHS2^A4 = molecular target: T3, DHS2^A4 (Arabidopsis thaliana, UniProt Q00218, G222S); test: Differential scanning fluorimetry (DSF) protein-ligand affinity analysis, DHS2^A4; type: binding; settings: ligand at 1 mM
T3 construct: without the predicted plastid transit peptide (amino acid residues; 49-525, 34-507, and 52-527, respectively); made in house; host or cells: E. coli
T3 sequence (Q00218 34-507 G222S): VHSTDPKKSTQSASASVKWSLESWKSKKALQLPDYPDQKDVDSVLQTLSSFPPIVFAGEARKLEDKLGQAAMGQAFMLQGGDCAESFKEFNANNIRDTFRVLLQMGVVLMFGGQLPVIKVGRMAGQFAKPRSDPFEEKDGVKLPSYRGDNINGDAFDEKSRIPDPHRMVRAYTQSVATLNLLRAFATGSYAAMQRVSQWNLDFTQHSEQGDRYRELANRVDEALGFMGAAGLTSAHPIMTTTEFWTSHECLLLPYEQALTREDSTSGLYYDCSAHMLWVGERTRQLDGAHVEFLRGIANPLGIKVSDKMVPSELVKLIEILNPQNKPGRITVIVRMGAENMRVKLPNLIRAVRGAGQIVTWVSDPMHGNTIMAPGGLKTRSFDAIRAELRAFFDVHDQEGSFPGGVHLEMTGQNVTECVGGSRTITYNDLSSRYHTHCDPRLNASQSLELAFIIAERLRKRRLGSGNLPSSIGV
Procedure: as §1

DHS2^WT [3] = molecular target: T2, DHS2^WT; test: DHS enzyme assay, recombinant DHS2^WT; type: biochemical; settings: recombinant enzyme; read-out: IC50 of effector molecule on DHS2^WT
Procedure: (§2) To generate recombinant DHS proteins the pET28a vectors carrying the A. thaliana DHS1 (AtDHS1), AtDHS2, or AtDHS3 WT sequence without the predicted plastid transit peptide (amino acid residues; 49-525, 34-507, and 52-527, respectively) were expressed in E. coli Rosetta-2 cells and purified using Ni-affinity chromatography, exactly as was conducted previously (9). To generate DHS proteins with individual sota mutations via site-directed mutagenesis, these pET28a plasmid templates were diluted by 500-fold, mixed with 0.04 U/μL Phusion DNA polymerase (Thermo Scientific), 0.2 mM deoxynucleoside triphosphates (dNTPs), 1× Phusion reaction buffer (Thermo Scientific), and 0.5 μM forward and reverse mutagenesis primers (Table 10). The PCR reaction was run using the following protocol: 98° C. for 30 s followed by 20 cycles of 10 s at 98° C., 20 s at 70° C., 4.5 min at 72° C. with a final extension at 72° C. for 10 min. The PCR products were purified using a QIAquick Gel Extraction Kit (QIAGEN), treated with FastDigest DpnI (Thermo Scientific) to digest methylated plasmid template DNA for 20 min at 37° C., and transformed into E. coli cells. The mutagenized pET28a plasmids were sequenced to confirm that no errors were introduced during the mutagenesis process.
The DHS enzyme assays were conducted using the colorimetric method that we recently described (9). Briefly, the enzyme solution (7.7 μl) containing 50 mM Hepes (pH 7.4) was preincubated with an effector molecule(s) at room temperature for 15 min. For assays using recombinant protein and enzyme fractions isolated from plant leaves, 0.01 to 0.1 μg and approximately 50 μg of proteins were used, respectively. After adding 0.5 μl of 0.1 M dithiothreitol, the samples were further incubated at room temperature for 15 min. During these incubations, the substrate solution containing 50 mM Hepes (pH 7.4), 2 mM MnCl2, 4 mM E4P, and 4 mM PEP at final concentration was preheated at 37° C. The enzyme reaction was started by adding 6.8 μl of the substrate solution, then incubated at 37° C. for 30 min, and terminated by adding 30 μl of 0.6 M trichloroacetic acid. After a brief centrifugation, 5 μl of 200 mM NaIO4 (sodium meta-periodate) in 9 N H3PO4 was added to oxidize the enzymatic product and to incubate at 25° C. for 20 min. To stop the oxidation reaction, 20 μl of 0.75 M NaAsO2 (sodium arsenite), which was dissolved in 0.5 M Na2SO4 and 0.05 M H2SO4, was added and immediately mixed. After 5 min of incubation at room temperature, one-third of the sample solution was transferred to a new tube to be mixed with 50 μl of 40 mM thiobarbituric acid and incubated at 99° C. for 15 min in a thermal cycler. The mixture was added to 600 μl of cyclohexanone in eight-strip solvent-resistant plastic tubes, mixed vigorously, and centrifuged at 4500 g for 3 min to separate water- and cyclohexanone-based layers for the extraction off the developed pink chromophore. The absorbance of the pink supernatant was read at 549 nm with the microplate reader (Infinite 200 PRO, TECAN) to calculate DAHP production with the molar extinction coefficient at 549 nm (ε=549 nm) of 4.5×10^4 M^−1 cm^−1. Reaction mixtures with boiled enzymes were run in parallel and used as negative controls to estimate the background signal.

sota mutant DHS enzymes = test: DHS enzyme assay, sota mutant enzymes compared with corresponding WT enzymes; type: biochemical, Arabidopsis thaliana
Procedure: as §2, with “The PCR products were purified using a QIAquick Gel Extraction Kit (QIAGEN), treated with FastDigest DpnI (Thermo Scientific) to digest methylated plasmid template DNA for 20 min at 37° C., and transformed into E. coli cells. The mutagenized pET28a plasmids were sequenced to confirm that no errors were introduced during the mutagenesis process.” left out
The DHS enzyme assays were conducted using the colorimetric method that we recently described (9). […] The absorbance of the pink supernatant was read at 549 nm with the microplate reader (Infinite 200 PRO, TECAN) to calculate DAHP production with the molar extinction coefficient at 549 nm (ε=549 nm) of 4.5×10^4 M^−1 cm^−1. […]

Compound: N[C@@H](Cc1c[nH]c2ccccc12)C(=O)O [Trp, tryptophan]
- IC50 of effector molecule on DHS3^WT (DHS3^WT): Not inhibited
- inhibition of DHS2 [1]: inhibit Arabidopsis DHS2
- effect on melting temperature (Tm) of DHS2^WT (DHS2^WT [2]): significantly increased the Tm
- effect on melting temperature (Tm) / binding of DHS2^A4 (DHS2^A4): still binds; also recorded: significantly increased the Tm

Compound: O=C(O)Cc1cc(O)ccc1O [HGA, homogentisate]
- IC50 (DHS2^WT [3]): 73.9 µM

Compound: O=C(O)C(=O)Cc1ccc(O)cc1 [HPP, 4-Hydroxyphenylpyruvate]
- increase of IC50 in sota mutant enzymes over corresponding WT enzymes (sota mutant DHS enzymes): up to 7 fold
